In the test the test system is filaggrin expression in normal human keratinocytes (NHEKs). Kind of test: Filaggrin expression in normal human keratinocytes in culture (in situ immunolabelling, fluorescence relative to number of nuclei). In kind it is cell-based. The settings on record: for filaggrin expression, % relative to the control / change in expression of filaggrin by the keratinocytes relative to the control: NHEKs; for filaggrin expression, % relative to the control: 144 hours incubation, n=3, control complete SFM medium = 100; for change in expression of filaggrin by the keratinocytes relative to the control: 144 hours. The protocol:
The in vitro effect of gingerone (compound 1, the chemical formula of which is given above) on keratinocyte differentiation is studied. The expression and the location of the marker of filaggrin differentiation are especially studied in keratinocytes in culture which thus makes it possible to evaluate the capacity of this compound to increase the differentiation of these cells. Normal human keratinocytes (NHEKs) were cultured at 37° C. and 5% CO2 for 24 h in a complete SFM medium until moderate confluence was obtained. A complete SFM medium is an SFM culture medium supplemented with pituitary extract (25 μg/ml), EGF (0.25 ng/ml) and gentamicin (25 μg/ml). […] The keratinocytes were then incubated for 144 hours. The treatments were carried out in triplicate (n=3). At the end of the incubation, the culture medium was removed and the cells were […], fixed, permeabilized then labelled with the primary antibody targeted against the filaggrin protein of interest (in situ immunolabelling). […] At the same time, the nuclei of the cells were stained with Hoechst 33258 (bisbenzimide). Image acquisition was carried out using an INCell AnalyzerTM1000 machine. The labels were quantified by measuring the fluorescence intensity of the proteins relative to the number of nuclei identified by the Hoechst product.

Each structure is given as a SMILES string. Marks after values point to notes of the source that are not given here.

These results are taken from patent publication US11602496B2, “Use of gingerone or derivatives thereof for reducing or delaying the signs of skin ageing” (L'OREAL, priority 2011, dated 2023).

`[Ca+2].[Cl-].[Cl-]` [CaCl2, calcium chloride, reference compound]: the “filaggrin expression, % relative to the control” value (1.5 mM) is recorded as 158** %. For the same compound, the “change in expression of filaggrin by the keratinocytes relative to the control” value (calcium chloride treatment (1.5 mM in Table 1)) is reported as “+58%”.
On to `COc1cc(CCC(C)=O)ccc1O` [Gingerone], for which, where the note is “2 μg/ml”, the “change in expression of filaggrin by the keratinocytes relative to the control” value is on record as “+33%” and the “filaggrin expression, % relative to the control” value is given as 133* %. Where the note is “20 μg/ml”, the “change in expression of filaggrin by the keratinocytes relative to the control” value is on record as “+51%” and the “filaggrin expression, % relative to the control” value is on record as 151* %. The “effect on expression of the filaggrin protein (in words)” value (normal human epidermal keratinocytes) is “significantly and dose-dependently increases the expression of the filaggrin protein”.
On to `CC1=C(/C=C/C(C)=C/C=C/C(C)=C/C(=O)O)C(C)(C)CCC1` [Retinoic acid, retinoic acid, reference compound], for which the “filaggrin expression, % relative to the control” value (10^−7 M) is on record as 3** %. In addition, the “change in expression of filaggrin by the keratinocytes relative to the control” value (retinoic acid treatment (10^−7 M in Table 1)) is −97%.
